Experimental data from PubChem BioAssay (NCI).
Several values for one entry are separate records, joined by “and”; a condition that tells them apart may be missing. Equal values may be shown once.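 Following 48 hours of exposure in 96-well plates, responses at five concentrations were used to interpolate endpoints linearly. Here, GI50 denotes the concentration required for 50% inhibition of growth. Definition used: TGI = concentration required for complete inhibition of growth.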

Assays:
Assay in all cases: DTP human tumour cell line panel, 48 h
[1] = system: M14 melanoma
[2] = system: LOX IMVI melanoma
[3] = system: MALME-3M melanoma
[4] = system: EKVX NSCLC
[5] = system: UACC-257 melanoma
[6] = system: SN12C renal
[7] = system: UO-31 renal
[8] = system: SW-620 colon
[9] = system: KM12 colon
[10] = system: HCC-2998 colon

| SMILES | GI50 [1] | TGI [1] | GI50 [2] | TGI [2] | GI50 [3] | TGI [3] | GI50 [4] | TGI [4] | GI50 [5] | TGI [5] [µM] | GI50 [6] | TGI [6] | GI50 [7] | TGI [7] | GI50 [8] | TGI [8] | GI50 [9] | TGI [9] | GI50 [10] | TGI [10] |
| --- | --- | --- | --- | --- | --- | --- | --- | --- | --- | --- | --- | --- | --- | --- | --- | --- | --- | --- | --- | --- |
| O=c1cc(-c2ccc(Cl)cc2)[nH]c2ccccc12 | 27.8 µM | > 100 µM | 39.3 µM | > 100 µM | 53.5 µM | > 100 µM | 51.4 µM | > 100 µM | > 100 µM | > 100 | > 100 µM | > 100 µM | > 100 µM | > 100 µM | 27.7 µM | > 100 µM | 27.2 µM | > 100 µM | > 100 µM | > 100 µM |
| C[C@H]1CCC/C=C/C2CC(OC(=O)CN(C)C)CC2C(OC(=O)CN(C)C)/C=C/C(=O)O1 (some centres not stated) | 0.178 µM | 4.65 µM | 1.16 µM | 2.67 µM | 0.171 µM | 0.371 µM | 0.558 µM | > 87.8 µM | 0.342 µM | 27.5 | 0.391 µM | 8.33 µM | 0.142 µM | 0.765 µM | 0.318 µM | 1.95 µM | 0.198 µM | 1.31 µM | 0.215 µM | 0.537 µM |
| C[C@@H](Nc1nc(N[C@H](C)C(F)(F)F)nc(-c2cccc(Cl)n2)n1)C(F)(F)F | > 100 µM | > 100 µM | 79.8 µM | > 100 µM | 60.2 µM | > 100 µM | 70.7 µM | > 100 µM | 51.4 µM | > 100 | 46.6 µM | > 100 µM | 51.3 µM | > 100 µM | > 100 µM | > 100 µM | > 100 µM | > 100 µM | 66.3 µM | > 100 µM |
| C/C=C1/CN2CCC34C(=C(C(=O)OC)C1CC23)Nc1ccc(O)cc14 (configuration not stated) | – | > 100 µM | – | > 100 µM | – | > 100 µM | – | > 100 µM | – | > 100 | – | > 100 µM | – | > 100 µM | – | > 100 µM | – | > 100 µM | – | > 100 µM |
| NC(N)=NN=c1c(=O)c2ccccc2c1=O | 2 µM | 3.46 µM | 1.58 µM | 3.25 µM | 1.66 µM | 3.06 µM | 18.7 µM | 34.8 µM | 15.1 µM | 28.9 | 1.81 µM | 3.83 µM | 6.81 µM | 20.1 µM | 1.96 µM | 4.76 µM | 3.34 µM | 10.7 µM | 14.2 µM | 28 µM |
| COc1cc2c(Oc3ccc(NC(=O)C4(C(=O)Nc5ccc(F)cc5)CC4)cc3F)ccnc2cc1OCCCN1CCOCC1 | 0.479 µM and 0.54 µM | 1.83 µM and 1.96 µM | 0.713 µM | 1.95 µM | 0.635 µM and 0.571 µM | 2.51 µM and 2.05 µM | 1.16 µM and 1.93 µM | 4.73 µM and > 10 µM | 1.19 µM | 2.78 | 0.266 µM and 0.259 µM | 13.3 µM and > 10 µM | 0.984 µM and 0.654 µM | 2.61 µM and 2.04 µM | 0.346 µM and 0.311 µM | 1.85 µM and 2.6 µM | 0.0177 µM and 0.0189 µM | 1.44 µM and 2.28 µM | 1.24 µM and 1.31 µM | 2.62 µM and 4.31 µM |
| Cc1cc(=O)oc2c(C3=NN(C=O)C(c4ccccc4)C3)c(O)ccc12 (configuration not stated) | – | > 95.9 µM | – | > 100 µM | – | > 85 µM | – | > 100 µM | – | > 100 | – | > 100 µM | – | > 100 µM | – | > 100 µM | – | > 100 µM | – | > 100 µM |
| CC(=O)N[C@H](C)[C@@H](O)[C@@H](C)[C@@H]1OC(=O)/C=C/C=C(C)\C=C\[C@]2(C)C[C@@H](NS(C)(=O)=O)C=C[C@@H]2/C=C(C)/C=C/[C@H]1C | 0.00309 µM | – | 0.00271 µM and 0.00743 µM | 0.00873 µM and 0.0148 µM | 0.0868 µM and 0.0628 µM | > 43.5 µM | – | > 43.5 µM | 0.0227 µM and 0.00967 µM | > 43.5 | 0.00723 µM and 0.0129 µM | > 43.5 µM | 0.00495 µM and 0.00725 µM | > 43.5 µM | 0.00821 µM and 0.0135 µM | > 43.5 µM | 0.125 µM and 0.0277 µM | > 43.5 µM | – | > 43.5 µM |
| Cc1noc2cccc(O)c12 | – | > 100 µM | – | > 100 µM | – | > 100 µM | – | > 100 µM | – | > 100 | – | > 100 µM | – | > 100 µM | – | > 100 µM | – | > 100 µM | – | > 100 µM |
| C=C1CCC2CC1C(C(=O)c1c[nH]c3ccccc13)=NC2(C)C (configuration not stated) | – | > 100 µM | – | > 100 µM | – | > 100 µM | – | > 100 µM | – | > 100 | – | > 100 µM | – | > 100 µM | – | > 100 µM | – | > 100 µM | – | > 100 µM |
| CC1=C(C(=O)Nc2cccc(Cl)c2)C(c2ccccc2O)C(C(=O)Nc2cccc(Cl)c2)=C(C)N1 | – | 31.7 µM | – | 39.7 µM | – | 38.6 µM | – | 47.6 µM | – | 36.6 | – | 39 µM | – | 31.3 µM | – | 35.8 µM | – | 31.2 µM | – | 33.1 µM |
| CCN(C(=O)N1CCN(c2cc3c(cc2F)c(=O)c(C(=O)O)cn3C2CC2)CC1)c1nc(-c2ccccc2)cs1 | 3.16 µM | > 100 µM | 1.39 µM | 9.09 µM | 2.77 µM | 9.06 µM | 3.35 µM | > 100 µM | 2.83 µM | 7.61 | 3.44 µM | > 100 µM | 2.31 µM | > 100 µM | 3.93 µM | > 100 µM | 2.94 µM | > 100 µM | 3.28 µM | 79.3 µM |
| O/N=C1/CCC/C1=C\c1ccccc1 | – | > 100 µM | – | > 100 µM | – | > 100 µM | – | > 100 µM | – | > 100 | – | > 100 µM | – | > 100 µM | – | > 100 µM | – | > 100 µM | – | > 100 µM |
| Cc1ccccc1/C=C/c1csnn1 | – | > 100 µM | – | > 100 µM | – | > 100 µM | – | > 100 µM | – | > 100 | – | > 100 µM | – | > 100 µM | – | > 79.9 µM | – | > 100 µM | – | > 100 µM |
| O=C1OC(CC(=O)c2ccc(F)cc2)C(Cl)=C1Cl (configuration not stated) | – | 56.6 µM | – | 31.9 µM | – | 33.8 µM | – | > 100 µM | – | 33.6 | – | 35.3 µM | – | 38.5 µM | – | 46.2 µM | – | 33 µM | – | 30.1 µM |
| NC1=NN(c2ccccc2)C(=O)C1C(=O)C(=O)Nc1ccc(Cl)cc1 (configuration not stated) | – | > 100 µM | – | > 100 µM | – | > 100 µM | – | > 100 µM | – | > 100 | – | > 100 µM | – | > 100 µM | – | > 100 µM | – | > 100 µM | – | > 100 µM |
